PubChem BioAssay AID1963955 (Xavier Lab, Infectious Disease and Microbiome Program, …, 2024)
pEC50: −log10 of the molar value. Blank lines part the entries; values can stand above or below the compound they belong to. Calls of active or inactive are those of the source.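 How the source made its calls: active means statistically significant rise in LC3 puncta area per cell versus the same autophagy inducer given alone; inactive means the rest.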

Assays:
[1] = system: mouse BMDM GFP-LC3 puncta imaging, 4 h; assay: autophagy inducers by MAP1LC3 foci formation, imaging, murine bone marrow-derived macrophages, green fluorescent protein-tagged MAP1LC3 (AID 1963955)
[2] = as above; details: mouse BMDM GFP-LC3 puncta imaging, 4 h, stronger effect = higher value

- pEC50 ([1]; no co-treatment, at 20 µM): 4.35
- pEC50 ([1]; no co-treatment, at 40 µM): 4.35
- pEC50 ([1]; with HBSS, at 20 µM): 4.64
- pEC50 ([1]; with HBSS, at 40 µM): 4.64
Structure (SMILES): CCC(C)(C)C(=O)C(=O)N1CCCC[C@H]1C(=O)N[C@H](CCc1ccc(OC)cc1)C(=O)N1[C@@H]2CC[C@H]1CC(Nc1nc(NCCc3sc(N)nc3C)nc(N3CCn4ncnc4C3)n1)C2 (stereo not given in full)

Structure (SMILES): CS(C)=O
- LC3 puncta area per cell ([2]; no co-treatment): 7.38 um2/cell (inactive)
- LC3 puncta area per cell ([2]; with HBSS): 9.2 um2/cell

Structure (SMILES): CCC(C)(C)C(=O)C(=O)N1CCCC[C@H]1C(=O)N[C@H](CCc1ccc(OC)cc1)C(=O)N1[C@@H]2CC[C@H]1CC(Nc1nc(NCCc3ccccc3)nc(N3CCn4ncnc4C3)n1)C2 (stereo not given in full)
- LC3 puncta area per cell ([2]; at 20 µM, no co-treatment): 5.15 um2/cell (inactive)
- LC3 puncta area per cell ([2]; at 20 µM, with HBSS): 10.8 um2/cell (inactive)
- LC3 puncta area per cell ([2]; at 40 µM, no co-treatment): 5.34 um2/cell (inactive)
- LC3 puncta area per cell ([2]; at 40 µM, with HBSS): 11.1 um2/cell
